Laboratory results taken from US20100292306A1, “Compositions And Methods For The Treatment Of Muscular Dystrophy” (priority 2005, published 2010).
“Also recorded” adds a separate entry of the source.

Experiments:
mdx TS muscle fibers = assay: Intracellular recording of resting membrane potential in TS muscle fibers after chronic treatment; format: in vivo, mdx mice
NFκB = assay: Trans AM assays of NFκB in gastrocnemius muscle preparations; format: in vivo, mdx mice; conditions: chronic PDTC
Text: The Trans AM assay and corresponding electrophoretic mobility shift assays (EMSA), along with Western Blot analyses of IκB-α (FIG. 1) and total cellular NFκB, are useful for screening compounds that inhibit the NFκB pathway in dystrophic skeletal muscle and identifying new compounds that have corresponding beneficial effects in treating dystrophic subjects.

[1] = test system: mdx triangularis sterni (TS) muscle; assay: Percent fibers and percent striated fibers in photographed areas of fixed mdx TS muscle; format: in vivo, mdx mice
Protocol: To evaluate the effect of various chemical agents on animal models of MD, experimental male and female mdx mice may be injected intraperitoneally (ip) with various chemicals at different dosage. In the case of pyrrolidine dithiocarbamate (PDTC) (50-75 mg/kg of PDTC (obtained from Sigma) may be dissolved in a saline solution (HEPES-Ringer; in mM: 147.5 NaCl, 5 KCl, 2 CaCl2, 11 glucose, 5 HEPES, pH 7.35) for injection. […] The mice may be sacrificed after 1-24 months from the beginning of treatment to determine the effect of the treatment with the chemicals.
In one embodiment, the treatment effect may be evaluated by comparing the morphological results between 3 regions of the triangularis sterni (TS); the caudal third of the muscle extending toward the xiphoid process, the middle third, and the cephalad third of the muscle. This procedure is adopted because there are obvious differences between these regions in the extent of pathology and the muscle thickness in the mdx TS (not clearly seen in the nondystrophic TS) even when examining the muscle at low power (e.g., 4×). Results from animals that die during the experimental time frame (both saline injected and PDTC treated) are typically excluded from the study.
Morphological assessment of total fiber density and density of striated fibers may be conducted as described in the following text. Immediately after completing the resting potential measurements, the minimally stretched TS muscle preparations attached to the dissecting hooks may be fixed overnight in 2% glutaraldehyde (0.1 M cacodylate buffer) and subsequently washed several times in 0.1 M cacodylate. Before removing the preparation from the recording chamber, microphotographs of approximately 24 randomly sampled areas may be obtained at 200-300× magnification in caudal, middle, and cephalad regions of the TS. In the initial studies, a smaller number of photographs may be obtained over the middle portion of the TS muscle.
Each preparation may be illuminated using bright-field optics to minimize depth of focus issues in visualizing muscle fiber striations. Since the mdx TS muscle is a flat and thin preparation, all the fibers in each area are roughly within the same focal plane. However, small variations in depth of focus may produce small variations in the appearance of striated fibers. Such effects may be minimized by routinely adjusting the plane of focus to maximize the number of striated fibers in each photographed area. The density of muscle fibers and the density of striated fibers may then be evaluated for each sampled area by drawing a line orthogonal to the principal axis of the TS muscle fibers across the entire viewing area of each photograph. The percentage of the length of this line that covered muscle fibers and the percentage of this line that covered striated muscle fibers (defined as having striations over at least 50% of the observed length) may be used to determine the percentage of muscle fibers and striated muscle fibers, respectively, for each photographed muscle area. Control experiments using these procedures on adult nondystrophic TS muscles (N=37 areas, 2 TS muscles at 19 and 27 months) may yield average values of 99.1±0.5 (SE) percent fibers and 96.7±1.2 percent striated fibers with no regional differences across the caudal, middle, and cephalad thirds of the muscle (FIG. 3).
In freshly isolated preparations of mdx TS muscle, hypercontraction and myofibrillar disorganization are expressed as a decrease in the appearance of striated muscle fibers (See e.g., FIG. 2A) and fiber loss and fibrosis appear as a decrease in the number of fibers in individual areas of the TS (See e.g., FIG. 2B; cf. Carlson et al., 2003 and Cullen and Fulthorpe, 1975). […]

nuclear NF-κB activation = conditions: long term treatment; Messina et al. (2006); cited from earlier work
[2] = Series 3 aged mdx mice, P<0.001 vs saline littermates

Question: Which “resting potential of TS fibers” value (mdx TS muscle fibers; 50 mg/kg ip 48-76 days, mature mdx mice Series 2 and Series 3) does the source give for S=C(S)N1CCCC1 [PDTC, pyrrolidine dithiocarbamate] here?
Answer: The value was “significantly increases”.

Question: And the “resting potential” value (mdx TS muscle fibers; Series 1 daily PDTC, middle and caudal regions, relative to nondystrophic levels)?
Answer: The value was “completely restored; also recorded: restores”.

Question: What about the “increase in resting potential, caudal region” value (mdx TS muscle fibers; Series 2 daily PDTC) of the same compound?
Answer: Its value is “not”.

Question: And the “resting potential, middle region” value (mdx TS muscle fibers; Series 2 daily PDTC, saline −35.8 mV, P<0.05)?
Answer: The value was −45.4 mV.

Question: And the “average resting potential, middle region” value (mdx TS muscle fibers; Series 3 aged mdx mice, N=9 fibers, 2 mice)?
Answer: Its value is −32.2±6.5 mV.

Question: What about the “resting potential, caudal region” value (mdx TS muscle fibers; [2]) of the same compound?
Answer: The value was “approximately −45 mV”.

Question: And the “resting potential, overall (middle, caudal, cephalad combined)” value (mdx TS muscle fibers; [2])?
Answer: The value was roughly −40 mV.

Question: What about the overall resting potential (mdx TS muscle fibers; Series 4: administration initiated at 5 months, read at 6.5-13.5 months, N=64 fibers, 3 TS muscles) of the same compound?
Answer: The overall resting potential was -49.3 ± 1.4 mV.

Question: What about the average resting potential (mdx TS muscle fibers; Series 4: mdx mouse treated between 5 and 13.5 months, N=22 fibers) of the same compound?
Answer: The average resting potential was −53.3±2.0 mV.

Question: And the “proportion of total cellular NFκB in the cytosolic fraction” value (NFκB)?
Answer: The value was “increases”.

Question: And the “proportion of nuclear NFκB” value (NFκB; adult mdx)?
Answer: The value was “reduces”.

Question: And the “total cellular NFκB” value (NFκB; adult mdx)?
Answer: The value was “reduces”.

Question: What about the “density of fibers in the TS” value ([1]; 50 mg/kg ip 48-76 days, Series 2 (11.5-18.5 months) and Series 3 (21.5-22 months)) of the same compound?
Answer: Its value is “increases”.

Question: What about the “increase in the percentage of striated muscle fibers” value ([1]; Series 1, vs untreated, P<0.01) of the same compound?
Answer: Its value is 3 fold.

Question: What about the “striated fibers in photographed area” value ([1]; Series 1: 50-75 mg/kg ip daily 27-30 days, 8.5-9 months at sacrifice, middle region, FIG. 2C) of the same compound?
Answer: Its value is “approximately 82%”.

Question: And the average percent fibers ([1]; Series 1: 50-75 mg/kg ip daily 27-30 days, same in untreated)?
Answer: The average percent fibers was “about 80%”.

Question: And the “density of striated fibers” value ([1]; Series 1: 50-75 mg/kg ip, 27-30 days, 8.5-9 months at sacrifice)?
Answer: The value was “increases”.

Question: What about the “increase in the percent of fibers” value ([1]; Series 2: 50 mg/kg daily, 11.5-18.5 months at sacrifice, middle third, P<0.01 vs saline) of the same compound?
Answer: Its value is 1.7 fold.

Question: And the “overall percent of fibers across all regions” value ([1]; Series 2, P<0.05 vs saline)?
Answer: Its value is “significant increase”.

Question: What about the “increased percent of striated fibers” value ([1]; Series 2, middle region, P<0.01 vs saline) of the same compound?
Answer: Its value is 8.4 fold.

Question: What about the “increase in the percent of striated fibers” value ([1]; Series 3 (22 months), caudal, middle and overall total of sampled areas) of the same compound?
Answer: Its value is 22- to 68 fold.

Question: And the “increases in the density of muscle fibers” value ([1]; Series 3: aged mdx mice (22 months), 50 mg/kg daily, across all regions, P<0.01 or P<0.001)?
Answer: Its value is 4.1- to 11.1 fold.

Question: And the overall percent fibers ([1]; Series 4: individual mdx mouse, 50 mg/kg on 238 of 258 days, 13.5 months of age, N=25)?
Answer: Its overall percent fibers is 82.2±2.6%.

Question: And the “overall percent striated fibers” value ([1]; Series 4: individual mdx mouse, 50 mg/kg on 238 of 258 days, 13.5 months of age, N=25 areas)?
Answer: The value was 40.4±2.6%.

Question: And the “effect of treatment on the percent of striated fibers” value ([1]; Series 4: longer administration beginning in 5 month mdx mice, middle and cephalad regions, P<0.001)?
Answer: The value was “significant effect”.

Question: And the “density of striated TS fibers” value ([1]; daily PDTC, Series 2 and Series 3)?
Answer: Its value is “increases”.

Question: What about the “nuclear NF-κB activation in mdx quadriceps” value (nuclear NF-κB activation) of the same compound?
Answer: The value was “effectively reduced”.
